Columns and labels:
Assay type in all cases: cell-based
[1] = system: TNFα release from THP-1 cells; assay: Primary screen (Example 1a): LPS-stimulated TNFα release from THP-1 cells, HTRF; settings: Homo sapiens, 100 ng/mL LPS, 3 h, normalised to 50 μM Batimastat, read-out: Primary Screen XC50 TNFα
Protocol: (§1) Two separate screens to identify novel small molecule inhibitors of iRhom2/ADAM17 activity were developed. […] Therefore, the primary screen for small molecule inhibitors of iRhom2/ADAM17 was a screen for inhibitors that blocked the release of TNFα from LPS-stimulated THP-1 human myeloid cells, a process that depends on iRhom2 and ADAM17. Since the release of TNFα from THP-1 cells can be blocked at many stages of the LPS/TLR4/iRhom2/ADAM17 pathway, a secondary screen was performed for another iRhom2/ADAM17 selective substrate, Kit-ligand 2 (KL-2) (Maretzky T et al. (July 2013), “iRhom2 controls the substrate selectivity of stimulated ADAM17-dependent ectodomain shedding”, PNAS 110(28): 11433-11438) in a different human cell type, human embryonic kidney cells (HEK 293).
THP-1 cells were plated in 384 or 1,536 wells and transferred on the ultra-high throughput screening (uHTS) platform Mark III, and TNFα shedding was initiated by LPS stimulation of THP-1 cells. The extent of released TNFα was detected with the corresponding HTRF antibodies labeled with europium cryptate (donor) and d2 (acceptor). The HTRF signal was generated by proximity of europium cryptate and d2. All detection reagents were purchased from Cisbio. TNFα detection was performed according to the manufacturer's protocol (Product Insert for Cisbio TNFα (h) Kit Part #62HTNFAPEG & 62HTNFAPEH;
7.5 nL compound and controls in DMSO [10 μM in assay; 0.25% DMSO in 3 [μL Assay] were dissolved in 2 μL cell suspension [2.4E6/mL; 4800 cells/well; culture w/o PenStrep], pre-incubated at 37° C., 5% CO2, for 15 min with 1 μL LPS [100 ng/mL in 3 μL assay]. The cells were incubated at 37° C., 5% CO2, for 3 h with 2 μL of the HTRF-mix [1:300 f.c.]. After an incubation at room temperature for 2 h or longer, the HTRF readout was performed. Then data evaluation for normalization against the 50 μM Batimastat control (=100% […]) was applied. As an additional control, 300 nM Batimastat was used to monitor performance of cells and assay sensitivity over time.

[2] = system: KL2 release from HEK-293 cells; assay: Secondary screen (Example 3a): PMA-stimulated KL2 release from HEK-293 cells, AP readout; settings: Homo sapiens, HEK293, HEK-293 cells expressing KL2-AP, PMA 500 ng/mL, 2 h, read-out: Secondary Screen XC50 KL2
Protocol: as §1
(§2) First, expression plasmids for alkaline phosphatase (AP)-fused KL2 and TGFα were designed and generated through gene synthesis followed by subcloning into the pcDNA3.1(+)/Hygro expression vector. […] Subsequently, DNA amplifications were performed to obtain sufficient amounts of the expression vectors. The quality of DNA and gene sequences were confirmed through restriction digest and Sanger sequencing. In parallel, cell culture of THP-1 and HEK-293 cells was initiated. Master and working cell banks were prepared. Both cell lines were scaled up and transfected with the respective constructs by electroporation. During cell culturing, cell density and viability were monitored to ensure optimal conditions for the transfections. After PMA stimulation, AP-coupled KL2 or TGFα were detected by measurement of AP activity in the supernatant. […] In contrast, THP-1 cells turned out to be not a suitable transfection host resulting in a loss of cell viability after transfection. The decision was made to proceed with HEK-293 for both selectivity assays and to establish polyclonal cell lines stably expressing AP-coupled KL2 or TGFα.
(§3) After electroporation, cells were further cultured in presence of selection antibiotics, hygromycin B, to generate stably transfected polyclonal cell pools. For both assays, KL2 and TGFα shedding, the respective selected pool turned out to be suitable. Final assay conditions were determined for the selected pools. For all experiments, batimastat (30 μM) was used as positive control for full inhibition of KL2 or TGFα shedding.
(§4) 60 μL of cells (40,000/well) were added to a sterile 384-well plate. After incubation overnight at 37° C. (5% CO2), 50 μL medium were removed and 20 μL of prediluted compounds were added to the cells. After incubation for 15 min, 20 μL of PMA (500 ng/mL final conc.) were added. The cells were incubated for 2 h at 37° C. (5% CO2). Then, 20 μL of the supernatant was transferred to a fresh plate and 20 μL of pNPP (5 mM final conc.) was added. AP reaction was performed for 1 h at RT. The reaction was stopped by addition of 20 μL of NaOH (1 M final conc.) and the absorbance of pNP was measured at 405 nm.

[3] = system: TGFα release from HEK-293 cells; assay: Counter screen (Example 4a): PMA-stimulated TGFα release from HEK-293 cells, AP readout; settings: Homo sapiens, HEK293, HEK-293 cells expressing TGFα-AP, PMA 100 ng/mL, 2 h, read-out: Counter Screen XC50 TGFα
Protocol: A tertiary counterscreen was also performed to monitor the release of TGFα, which is a substrate of iRhom1/ADAM17 and iRhom2/ADAM17, so its release should not be blocked by an iRhom2-selective inhibitor (Maretzky T et al. (July 2013), “iRhom2 controls the substrate selectivity of stimulated ADAM17-dependent ectodomain shedding”, PNAS 110(28): 11433-11438; and Li X et al. (May 2015), “iRhoms 1 and 2 are essential upstream regulators of ADAM17-dependent EGFR signaling”, PNAS 112(19): 6080-6085).
as §2, §3
as §4, with “of cells (20,000/well) were added” for “of cells (40,000/well) were added”, “of PMA (100 ng/mL final” for “of PMA (500 ng/mL final”, “was added. The AP reaction” for “was added. AP reaction”

Compound | IC50 [1] [µM] | IC50 [2] [µM] | IC50 [3] [µM]
Cc1ccccc1C(=O)N1CCC(Cc2ccccc2)CC1 [Compound 1] | 10.2 | 2.6 | > 128
O=C(c1cccs1)N1CCC(Cc2ccccc2)CC1 [Compound 2] | < 0.802 | > 128 | > 128
Cc1ccccc1C(=O)N1CCN(Cc2ccccc2)CC1 [Compound 3] | 12.3 | > 128 | > 128
O=C(c1c(Cl)cccc1Cl)N1CCN(Cc2ccc3c(c2)OCO3)CC1 [Compound 4] | 30.8 | > 128 | > 128
Cc1ccccc1C(=O)N1CCN(Cc2cccc(Cl)c2)CC1 [Compound 5] | 1.4 | > 128 | > 128
O=C(c1ccccc1F)N1CCN(Cc2cccc(Br)c2)CC1 [Compound 6] | 12.4 | > 128 | > 128
O=C(c1c(F)cccc1F)N1CCN(Cc2ccc(Cl)s2)CC1 [Compound 7] | 14.1 | > 128 | > 128
Cc1csc(CN2CCN(C(=O)c3c(F)cccc3Cl)CC2)n1 [Compound 8] | 1.9 | > 128 | > 128
O=C(c1ccccc1F)N1CCN(Cc2nc(C3CC3)cs2)CC1 [Compound 9] | 27.8 | > 128 | > 128
COc1cccc(OC)c1C(=O)N1CCN(Cc2cccc3ccccc23)CC1 [Compound 10] | 22.6 | 67.7 | > 128
COc1cccc(OC)c1C(=O)N1CCN(Cc2cccc(Br)c2)CC1 [Compound 11] | 24.7 | > 128 | > 128
O=C(NN1CCN(Cc2ccccc2)CC1)C12CC3CC(CC(C3)C1)C2 [Compound 12] | 8.9 | > 128 | > 128
Cc1ccccc1C(=O)N1CCN(c2ccc(NC(=O)c3ccco3)cc2Cl)CC1 [Compound 13] | 3.5 | 18 | > 128
Cc1ccccc1C(=O)N1CCN(c2ccc(NC(=O)c3cccnc3)cc2Cl)CC1 [Compound 14] | < 0.802 | 12.8 | > 128
CCC1CN(C(=O)c2ccc3cc[nH]c3c2)CCC(=O)N1Cc1ccccc1 (stereo not drawn) [Compound 15] | < 0.802 | > 128 | > 128
CCC1CN(C(=O)c2ccc3c(c2)CCO3)CCC(=O)N1Cc1ccccc1 (stereo not drawn) [Compound 16] | 15.4 | > 128 | > 128
Cc1ccc(F)c(C(=O)N2CCc3nnc(CCc4ccccc4)n3CC2)c1F [Compound 17] | 15.2 | > 128 | > 128
CCC(Cn1cnc(-c2ccccc2)c1-c1ccncc1)N1CCOCC1 (stereo not drawn) [Compound 18] | 21.8 | > 128 | > 128
Cc1ccn(CCCn2cnc(-c3ccccc3)c2-c2ccncc2)n1 [Compound 19] | 1.2 | > 128 | > 128

Compound | IC50 [1] [µM] | IC50 [2] [µM] | IC50 [3] [µM]
c1ccc(-c2ncn(CCCc3cccnc3)c2-c2ccncc2)cc1 [Compound 20] | < 0.802 | > 128 | > 128
Nc1cccc(-c2cnc3ccc(NCc4cccs4)nn23)c1 [Compound 21] | 1.3 | 120 | > 128
CNc1ccc2ncc(-c3cccc(O)c3)n2n1 [Compound 22] | 27.8 | 8.8 | > 128
COCC(=O)N1CCCc2ccc(NC(=O)Nc3ccc(F)cc3)cc21 [Compound 23] | 3.7 | > 128 | > 128
COc1ccc(Nc2nc(NCCCO)c3ccccc3n2)cc1 [Compound 24] | 1.1 | > 128 | > 128
CC(=O)c1cccc(Nc2nc(NCC3CCCO3)c3ccccc3n2)c1 (stereo not drawn) [Compound 25] | 5.6 | 55 | > 128
Fc1ccc(Nc2nc3nonc3nc2Nc2ccc(F)cc2F)c(F)c1 [Compound 26] | 1.4 | 22.3 | 71.2
C=C(C)Cn1c(=O)nc(N)c2c(-c3ccc(OC)cc3)csc21 [Compound 27] | < 0.802 | > 128 | > 128
CCCn1c(=O)nc(N)c2c(-c3ccc(OC)cc3)csc21 [Compound 28] | 1.7 | > 128 | > 128
Cc1ccc(-n2ncc3c(NC4CCCCC4)ncnc32)c(C)c1 [Compound 29] | < 0.802 | > 128 | > 128
C/C(=C\c1c(C)[nH]c2ccccc12)[N+](=O)[O-] [Compound 30] | 24.3 | 12.1 | > 128
Cc1n[nH]c2c1C(c1ccccc1OC(F)F)C(C#N)=C(N)O2 (stereo not drawn) [Compound 31] | 34.5 | 32.2 | > 128
COc1ccc(-c2cnc3sc(NCCCO)nn23)cc1OC [Compound 32] | 68.7 | 66.5 | > 128
O=C(CCn1sc2ccccc2c1=O)Nc1ccc2cc[nH]c2c1 [Compound 33] | 5.1 | 6 | 24.1
CCC(C)NC(=O)c1cc(C(=O)c2ccccc2C)c[nH]1 (stereo not drawn) [Compound 34] | 10.2 | > 128 | > 128
O=C(c1c[nH]c(-c2nnc3n2CCCCC3)c1)c1cc(F)ccc1O [Compound 35] | 28.2 | > 128 | > 128
c1ccc(-c2ncn(CCc3c[nH]cn3)c2-c2ccncc2)cc1 [Compound 36] | 19 | > 128 | > 128
CC(C)c1nccc(-c2c(-c3ccccc3)ncn2CCc2c[nH]cn2)n1 [Compound 37] | 4.99 | > 128 | > 128
OC(Cc1ccccc1)Cn1cnc(-c2ccccc2)c1-c1cccnc1 (stereo not drawn) [Compound 38] | 108 | > 128 | > 128

Source: patent publication US20240390355A1, “IRHOM2 INHIBITORS AND USES THEREOF” (NEW YORK SOCIETY FOR THE RELIEF OF THE RUPTURED AND …, priority 2021, published 2024)
